Details of data set [1]: method as in Hinderliter et al. [2006]. The conditions noted are these: ref Hinderliter et al. [2006], cited from earlier work.
Data set [2] can be described thus: Sorption of PFOA on house dust in near saturated vapor. Format: physicochemical. The note with it: more than 3 weeks. The method, then:
To achieve a sufficient concentration of PFOA on the house dust, a saturated vapor concentration procedure was created to adsorb/absorb PFOA on the house dust. This was done to ensure detectability in the tissue samples. Ten grams of solid pure perfluorooctanoic acid was placed in a glass jar bottle, capped with a lid, shaken and stored at room temperature (25 ± 0.1 °C) to allow vaporization and pre-equilibration of PFOA on the walls of the glass jars. Following equilibration of PFOA in the air and on walls of jars, a portion of 5 ± 0.03 g dust was placed in a polypropylene (PP) round plate inside each of four jars. These were capped and kept under the controlled room temperature and atmospheric pressure over time, mimicking a residential indoor environment, but with a saturated vapor of PFOA. Repeated samples of dust were withdrawn from the jars over time and analyzed for the PFOA content. This procedure was repeated over time for up to 6 weeks until a stable equilibrium concentration of PFOA was attained adsorbed to the dust. […]
During the adsorption process, the concentration of PFOA adsorbed to the dust was periodically measured after a rotatory mixing of dust samples with a tube rotator or 24 h prior to the extraction procedures and instrumental analysis. […]

On the set-up of data set [3]: method as in Li et al. [2017]. The conditions noted are these: humans, calculated; ref Li et al. [2017]; cited from earlier work.
Details of data set [4]: method as in Li et al. [2017]. The note with it: rats; ref Li et al. [2017]; cited from earlier work.

The structures appear in SMILES notation. Read-outs that look alike come from different tables or passages of the source.

As for `O=C(O)C(F)(F)C(F)(F)C(F)(F)C(F)(F)C(F)(F)C(F)(F)C(F)(F)F` [PFOA, Perfluorooctanoic acid], the “Concentration of PFOA in plasma” value in data set [1] (6-h inhalation exposure, 1–25 mg/m^3 aerosolized solution) was 1000 to 25000 ng/mL. In data set [1] (end of the 6-h exposure time), the “Plasma level in male compared to females” value is recorded as “almost twice as high”. In data set [2], the “Steady state concentration of PFOA on house dust” value stood at 0.335 g/g coated dust. Further, the values for the Half-time in data set [3] and in data set [4] were 2.3–8.5 years and “a few days”, respectively.

Values taken from article PMC9587079, “Bioavailability of inhaled or ingested PFOA adsorbed to house dust” (Environmental Science and Pollution Research International, 2022).
